Assays:
HSV-1 = test: Antiviral activity, HSV-1 in Vero cells, plaque method; type: cell-based; conditions: Human alphaherpesvirus 1, 20 hours, 90% inhibition of plaque formation
Method: An Assay Method for Antiviral Activity These complementary assay methods examine the capacity of a compound to inhibit the generation of new viruses and to inhibit the toxicity of the compound against the host cell. Toxicity indirectly decreases the generation of viruses. Thus, it is important to simultaneously conduct both assays in order to directly compare the results. The Vero cells were sown on a 96-well plate and then cultured overnight. The culture supernatant was removed, and 100 μl of 2% FBS-DMEM containing 50,000 plaque-forming units (hereinafter abbreviated as “pfu”) of HSV-1 was added. A viral solution was removed and 200 μl of 2% FBS-DMEM comprising a test compound was added. In this case, a substance to which 2% FBS-DMEM not comprising any test compound had been added was determined as a control. These infected cells were incubated in the presence of 5% CO2 at 37° C. for 20 hours, and the medium was once allowed to freeze at −80° C. The culture solution was dissolved, and the amount of viruses in the culture solution was assayed by the plaque method. The concentration of the test compound when it inhibited 90% of plaque formation relative to the control was determined to be EC 90.

HSV-1 protease = target: T1, HSV-1 protease (Human herpesvirus 1, UniProt P10210); test: Enzymatic assay for HSV-1 protease (assembly) inhibitor, fluorescence polarization; type: biochemical; conditions: read-out: HSV-1 Enzyme inhibition IC50
T1 construct: 6xHis (N); made in house; host or cells: baculovirus expression system
T1 sequence (P10210 1-247): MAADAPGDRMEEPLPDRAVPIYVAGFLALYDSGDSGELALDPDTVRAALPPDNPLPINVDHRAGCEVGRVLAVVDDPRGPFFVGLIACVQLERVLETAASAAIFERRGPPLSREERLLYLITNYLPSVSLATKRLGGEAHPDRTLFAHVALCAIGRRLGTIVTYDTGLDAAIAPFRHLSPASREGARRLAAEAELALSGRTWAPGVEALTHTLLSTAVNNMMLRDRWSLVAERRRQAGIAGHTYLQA
Method: An enzymatic assay method for an HSV-1 protease (assembly) inhibitor
The activity of an assembly protease was determined by fluorescence polarization. Biotin-gamma-amino butyrate-[…]-DTAF was used as a fluorescent substrate in accordance with an HSV-1 release and cleavage site. […] Changes in the sizes of fluorescent substrate molecules that increased with the use of avidin as a reaction terminator were assayed by fluorescence polarization.
The test compound was dissolved in DMF, and the resultant was diluted 5-fold with an assay buffer. 6.5 μl thereof was added to wells of a 96-well plate (a U-bottomed 96-well plate, Coster) that had previously been blocked with a blocking solution (10 mM Tris-HCl (pH 8.0), 150 mM sodium chloride, 0.05% Tween 20, 1 mg/ml of BSA). The enzyme was diluted to 21.3 μg/ml with an assay buffer (1M sodium citrate, 50 mM sodium phosphate (pH 7.4), 100 mM sodium chloride, 20% glycerol, 2 mM TCEP), and 48.5 μl of the resultant was added to each well. The plate was incubated at room temperature for 30 minutes, and 10 μl of 62.5 μg/ml substrate solution was then added to each well. The plate was incubated at room temperature for 60 minutes, and 50 μl of 2 mg/ml avidin phosphate buffer solution (50 mM sodium phosphate, 100 mM sodium chloride (pH 7.4)) was added to each well. The activity was determined in comparison with a compound without protease inhibitor using a microplate reader for fluorescence polarization.
HSV-1 protease was purified from a vaculovirus that had expressed a DNA construct encoding the reading frame for HSV-1UL26. This construct had further encoded 6 histidine residues at the amino terminus of the protease. These additional histidine residues impart affinity ligands purified by nickel-nitriloacetic acid-agarose (Qiagen). The purified protease was stored as a stock solution for a 20 mM HEPES buffer (pH 8.5, containing 20% v/v glycerin). This stock solution was diluted with an assay buffer and then used in the enzyme reaction.
In accordance with the cleavage specificity of the HSV-1 protease at the “release site” of the assembled protein, a specific substrate was synthesized (Diianni et al., J. Biol. Chem. 268, 2048 (1993)). This assembly protein-release site had the sequence • HTYLQA*SEKFKMW • , and the substrate used was biotin-gamma-amino butyrate-HTYLQA*SERFRIK-DTAF. This is a standard method for peptide synthesis, for example, as in the a method described in “The Practice of Peptide Synthesis” (Bodansky and Bodansky (1984)). The product was stored as a 2.5 mg/ml stock solution in DMF. The resultant was diluted to 62.5 μg/ml with a phosphate buffer (50 mM sodium phosphate, 100 mM sodium chloride, (pH 7.4)) immediately before its use.
An assay buffer (1M sodium citrate, 50 mM sodium phosphate (pH 7.4), 100 mM sodium chloride, 20% glycerol, 2 mM TCEP) was used to dilute a stock solution for the enzyme and that for the inhibitor.

## Cc1c(NC(=O)CCCNC(=O)OCc2ccccc2)ccc2nc(NC(C)(C)C(=O)N(C)CCc3ccccn3)oc(=O)c12 [Compound No.204, [3-(5-Methyl-2-{1-methyl-1-[methyl-(2-pyridin-2-yl-ethyl)-carbamoyl]-ethylamino}-4-oxo-4H-benzo[d][1,3]oxazin-6-ylcarbamoyl)-propyl]-carbamic acid benzyl ester]
HSV-1
  EC90: > 12500 nM
HSV-1 protease
  IC50: 300 nM

## CCCCc1ccc(C(=O)NCCC(=O)Nc2ccc3nc(N[C@@H](C)C(=O)N(C)CCc4ccccn4)oc(=O)c3c2C)cc1 [Compound No.217, 4-Butyl-N-[2-(5-methyl-2-{1S-[methyl-(2-pyridin-2-yl-ethyl)-carbamoyl]-ethylamino}-4-oxo-4H-benzo[d][1,3]oxazin-6-ylcarbamoyl)-ethyl]-benzamide]
HSV-1
  EC90: > 12500 nM
HSV-1 protease
  IC50: 4700 nM

## Cc1c(NC(=O)CCCNC(=O)c2ccc(C(F)(F)F)cc2)ccc2nc(NC(C)(C)C(=O)N(C)CCc3ccccn3)oc(=O)c12 [Compound No.213, N-[3-(5-Methyl-2-{1-methyl-1-[methyl-(2-pyridin-2-yl-ethyl)-carbamoyl]-ethylamino}-4-oxo-4H-benzo [d][1,3]oxazin-6-ylcarbamoyl)-propyl]-4-trifluoromethyl-benzamide]
HSV-1
  EC90: > 12500 nM
HSV-1 protease
  IC50: 300 nM

## Cc1c(NC(=O)CCCNC(=O)OCc2ccccc2)ccc2nc(N[C@@H](C)C(=O)N(C)CCc3ccccn3)oc(=O)c12 [Compound No.208, [3-(5-Methyl-2-{1S-[methyl-(2-pyridin-2-yl-ethyl)-carbamoyl]-ethylamino}-4-oxo-4H-benzo[d][1,3]oxazin-6-ylcarbamoyl)-propyl]-carbamic acid benzyl ester]
HSV-1
  EC90: > 12500 nM
HSV-1 protease
  IC50: 200 nM

## Cc1c(NC(=O)CCCNC(=O)c2ccc(C(F)(F)F)cc2)ccc2nc(N[C@@H](C)C(=O)N(C)CCc3ccccn3)oc(=O)c12 [Compound No.219, N-[3-(5-Methyl-2-{1S-[methyl-(2-pyridin-2-yl-ethyl)-carbamoyl]-ethylamino}-4-oxo-4H-benzo[d][1,3]oxazin-6-ylcarbamoyl)-propyl]-4-trifluoromethyl-benzamide]
HSV-1
  EC90: > 12500 nM
HSV-1 protease
  IC50: 900 nM

## Cc1c(NC(=O)OC(C)(C)C)ccc2nc(NC3(C(=O)N(C)Cc4ccncc4)CCCC3)oc(=O)c12 [Compound No.121, {5-Methyl-2-[1-(methyl-pyridin-4-ylmethyl-carbamoyl)-cyclopentylamino]-4-oxo-4H-benzo[d][1,3]oxazin-6-yl}-carbamic acid tert-butyl ester]
HSV-1
  EC90: 11500 nM
HSV-1 protease
  IC50: 2800 nM

## Cc1c(NC(=O)OC(C)(C)C)ccc2nc(N[C@H](C)C(=O)N(C)CCc3ccccn3)oc(=O)c12 [Compound No.132, (5-Methyl-2-{1R-[methyl-(2-pyridin-2-yl-ethyl)-carbamoyl]-ethylamino}-4-oxo-4H-benzo[d][1,3]oxazin-6-yl)-carbamic acid tert-butyl ester]
HSV-1
  EC90: 15800 nM
HSV-1 protease
  IC50: 800 nM

## Cc1c(NC(=O)OC(C)(C)C)ccc2nc(NCC(=O)N(C)CCc3ccccn3)oc(=O)c12 [Compound No.130, [5-methyl-2-({[methyl-(2-pyridin-2-yl-ethyl)-carbamoyl]-methyl}-amino)-4-oxo-4H-benzo[d][1,3]oxazin-6-yl]-carbamic Acid Tert-Butyl Ester]
HSV-1
  EC90: > 20000 nM
HSV-1 protease
  IC50: 400 nM

## Cc1c(NC(=O)CCNC(=O)c2cccs2)ccc2nc(NC(C)(C)C(=O)N(C)CCc3ccccn3)oc(=O)c12 [Compound No.209, thiophene-2-carboxylic acid [2-(5-methyl-2-{1-methyl-1-[methyl-(2-pyridin-2-yl-ethyl)-carbamoyl]-ethylamino}-4-oxo-4H-benzo[d][1,3]oxazin-6-ylcarbamoyl)-ethyl]-amide]
HSV-1
  EC90: > 12500 nM
HSV-1 protease
  IC50: 900 nM

## CCCCc1ccc(C(=O)NCCCC(=O)Nc2ccc3nc(NC(C)(C)C(=O)N(C)CCc4ccccn4)oc(=O)c3c2C)cc1 [Compound No.214, 4-Butyl-N-[3-(5-methyl-2-{1-methyl-1-[methyl-(2-pyridin-2-yl-ethyl)-carbamoyl]-ethylamino}-4-oxo-4H-benzo[d][1,3]oxazin-6-ylcarbamoyl)-propyl]-benzamide]
HSV-1
  EC90: > 12500 nM
HSV-1 protease
  IC50: 300 nM

## Cc1c(NC(=O)OC(C)(C)C)ccc2nc(NC3(C(=O)N(C)CCc4ccccn4)CCCCC3)oc(=O)c12 [Compound No.124, (5-Methyl-2-{1-[methyl-(2-pyridin-2-yl-ethyl)-carbamoyl]-cyclohexylamino}-4-oxo-4H-benzo[d][1,3]oxazin-6-yl)-carbamic acid tert-butyl ester]
HSV-1
  EC90: 6100 nM
HSV-1 protease
  IC50: 1000 nM

## Cc1c(NC(=O)CCNC(=O)OC(C)(C)C)ccc2nc(N[C@@H](C)C(=O)N(C)CCc3ccccn3)oc(=O)c12 [Compound No.205, [2-(5-Methyl-2-{1S-[methyl-(2-pyridin-2-yl-ethyl)-carbamoyl]-ethylamino}-4-oxo-4H-benzo[d][1,3]oxazin-6-ylcarbamoyl)-ethyl]-carbamic acid tert-butyl ester]
HSV-1
  EC90: > 20000 nM
HSV-1 protease
  IC50: 2500 nM

## Cc1c(NC(=O)CCCNC(=O)c2cccs2)ccc2nc(N[C@@H](C)C(=O)N(C)CCc3ccccn3)oc(=O)c12 [Compound No.218, Thiophene-2-carboxylic acid [3-(5-methyl-2-{1S-[methyl-(2-pyridin-2-yl-ethyl)-carbamoyl]-ethylamino}-4-oxo-4H-benzo[d][1,3]oxazin-6-ylcarbamoyl)-propyl]-amide]
HSV-1
  EC90: > 12500 nM
HSV-1 protease
  IC50: 400 nM

## Cc1c(NC(=O)CCNC(=O)c2ccc(C(F)(F)F)cc2)ccc2nc(NC(C)(C)C(=O)N(C)CCc3ccccn3)oc(=O)c12 [Compound No.210, N-[2-(5-Methyl-2-{1-methyl-1-[methyl-(2-pyridin-2-yl-ethyl)-carbamoyl]-ethylamino}-4-oxo-4H-benzo[d][1,3]oxazin-6-ylcarbamoyl)-ethyl]-4-trifluoromethyl-benzamide]
HSV-1
  EC90: > 12500 nM
HSV-1 protease
  IC50: 700 nM

## Cc1c(NC(=O)CCNC(=O)OC(C)(C)C)ccc2nc(NC(C)(C)C(=O)N(C)CCc3ccccn3)oc(=O)c12 [Compound No.201, [2-(5-methyl-2-{1-methyl-1-[methyl-(2-pyridin-2-yl-ethyl)-carbamoyl]-ethylamino}-4-oxo-4H-benzo[d][1,3]oxazin-6-ylcarbamoyl)-ethyl]-carbamic Acid Tert-Butyl Ester]
HSV-1
  EC90: > 12500 nM
HSV-1 protease
  IC50: 1100 nM

## Cc1c(NC(=O)OC(C)(C)C)ccc2nc(NC(C)(C)C(=O)N(C)Cc3cccnc3)oc(=O)c12 [Compound No.117, {5-Methyl-2-[1-methyl-1-(methyl-pyridin-3-ylmethyl-carbamoyl)-ethylamino]-4-oxo-4H-benzo[d][1,3]oxazin-6-yl}-carbamic acid tert-butyl ester]
HSV-1
  EC90: > 12500 nM
HSV-1 protease
  IC50: 700 nM

## Cc1c(NC(=O)OC(C)(C)C)ccc2nc(NC3(C(=O)N(C)CCc4ccccn4)CC3)oc(=O)c12 [Compound No.122, (5-Methyl-2-{1-[methyl-(2-pyridin-2-yl-ethyl)-carbamoyl]-cyclopropylamino}-4-oxo-4H-benzo[d][1,3]oxazin-6-yl)-carbamic acid tert-butyl ester]
HSV-1
  EC90: > 12500 nM
HSV-1 protease
  IC50: 1600 nM
